Patent publication US20240261248A1, “METHODS FOR TREATING AUTISM SPECTRUM DISORDERS (ASD)” (SK BIOPHARMACEUTICALS CO., LTD., priority 2021, published 2024)

Key:
MeCP2 KO mice (HET) [1] = assay: Accelerating rotarod test in MeCP2 KO mice (HET); type: in vivo, mouse; details: accelerating speed 0-40 rpm over 5 min, compared to vehicle-treated HET mice, FIG. 6
Text: The rotarod test is widely used to evaluate the motor coordination of rodents, and is especially sensitive in detecting cerebellar dysfunction. The motor performance on the rotarod can be influenced by several factors, such as motor coordination, learning and cardiopulmonary endurance. Since several studies have shown that basal ganglia are essential in motor skill learning of serial motor sequence. The test measures parameters such as riding time (seconds) or endurance (RPM).
Mice were placed on the rotarod apparatus (Ugo basile, Italy) consisting of a rod that rotates at a constant or variable and accelerating speed of 4 rpm. Once a mouse loses its balance and falls onto an underlying platform, the timer automatically stops. Mice were exposed to the apparatus for 5 min training at a constant speed (4 rpm) and placed back on the rod after each fell. After a rest period of at least 1 hr, animals were placed back on the rotarod apparatus for testing. Once all animals in a test session were loaded on the rod, the rotarod apparatus was placed on accelerating speed (0-40 rpm) over 5 min and then the first falling time was recorded. The test was repeated three consecutive times per animal. For each test session, the RPM score at time of fall off the rod were recorded.

[2] = test system: MeCP2 knockout mice (Null); assay: Survival rate test in MeCP2 knockout mice (Null); type: in vivo, mouse
Description: Vehicle Null group: vehicle (0.9% saline, 10 ml/kg)
Test compound Null group: 100 mg/kg, po in 0.9% saline
About 5 week old Null mice were treated with daily oral injections of the vehicle or Test compound. MeCP2 knockout mice (Null) survival rate test was conducted until all animals were dead.
ILS ([…])%: 100×(median survival days of test group-median survival days of vehicle group)/median survival days of vehicle group (FIG. 4).

[3] = test system: MeCP2 KO mouse primary cortical neurons; assay: Morphological recovery of MeCP2 KO primary neuron: synaptogenesis and soma size (Synapsin-1, MAP2, Hoechst, DIV14); type: cell-based; details: Test compound 1000 nM from DIV1, analysed at DIV14
Description: (§1) MeCP2 KO mouse primary cortical neurons were cultured at PO and morphological change was analyzed via immunocytochemistry.
BDNF (50 ng/ml) or Test compound (1000 nM) was treated from DIV1 to indicated days. At DIV14, synaptogenesis and soma size were analyzed with Synapsin-1, MAP2 immunostaining and nuclear staining with Hoechst.

[4] = Body weight change in MeCP2 KO mice (HET); type: in vivo, mouse; details: 100 mg/kg po daily from about 5 weeks to 16 weeks old, FIG. 5
Description: Vehicle WT group: vehicle (0.9% saline, 10 ml/kg)
Vehicle HET group: vehicle (0.9% saline, 10 ml/kg)
Test compound HET group: 100 mg/kg, po in 0.9% saline
About 5 week old WT and HET mice were treated with daily oral injections of the vehicle or Test compound. Treatment conducted until the mice became 16 weeks old.

MeCP2 KO mice (HET) [5] = assay: Hindlimb clasping test in MeCP2 KO mice (HET); type: in vivo, mouse; details: 100 mg/kg, compared to vehicle-treated HET mice, FIG. 7
[6] = test system: MeCP2 KO mouse primary cortical neurons; assay: Morphological recovery of MeCP2 KO primary neuron: neurite outgrowth (MAP2 immunostaining, DIV5); type: cell-based; details: Test compound 80 and 2000 nM from DIV1, analysed at DIV5; BDNF 50 ng/ml as comparator; FIG. 1
Description: as §1
BDNF (50 ng/ml) or Test compound (80 and 2000 nM) was treated from DIV1 to indicated days. At DIV5, the neurite outgrowth was analyzed with MAP2 immunostaining for analysis of neurite formation.

NC(=O)OC[C@H](N)Cc1ccccc1 [Test compound, (R)-(beta-amino-benzenepropyl) carbamate]
speed at fall (RPM score) (MeCP2 KO mice (HET) [1]): fell at higher speeds | time to fall off from the rod (MeCP2 KO mice (HET) [1]): took more time to fall off from the rod | increase of ILS % ([2]; 100 mg/kg po daily from about 5 weeks old, compared to vehicle-treated Null mice, FIG. 4): 42.7% | life span ([2]; 100 mg/kg po daily, vs vehicle, P<0.0046, Log lank test): significant enhancement of life span | synaptogenesis ([3]; FIG. 2): significantly enhanced | soma size ([3]; FIG. 3): significantly enhanced | body weight change [4]: did not affect the body weight change | clasping (MeCP2 KO mice (HET) [5]): clasped less than vehicle-treated HET mice | neurite length (neurite outgrowth) [6]: significantly enhanced the neurite length to a level similar to that of BDNF
